Measured values taken from US20100324284A1, “PYRROLOPYRIMIDINE DERIVATIVE AS P13K INHIBITOR AND USE THEREOF” (CHUGAI SEIYAKU KABUSHIKI KAISHA, priority 2008, published 2010).

Experiments:
[1] = tested on: human colon cancer cell line HCT116; experiment: Cell proliferation inhibitory activity, HCT116 (Cell Counting Kit-8); type: cell-based; conditions: HCT-116, 96 h, HCT116, 4 days
Procedure: (§1) The cell proliferation inhibitory activity was measured for compounds of the present invention represented by formula (I). Cancer cell proliferation inhibitory activity was measured using the Cell Counting Kit-8 (Dojindo). 2000 cells each of human colon cancer cell line HCT116 purchased from the American Type Culture Collection (Virginia, USA) were seeded into each well of a 96-well culture plate followed by the addition of a predetermined concentration of the compounds and cultivating in a 5% CO2 environment at 37° C. for 4 days. On the fourth day of cultivating, the Cell Counting Kit-8 solution was added and absorbance (measuring wavelength: 450 nm, reference wavelength: 615 nm) was measured in accordance with the protocol provided with the kit.

[2] = tested on: human lung cancer cell line NCI-H460; experiment: Cell proliferation inhibitory activity, NCI-H460 (Cell Counting Kit-8); type: cell-based; conditions: 96 h, NCI-H460, 4 days, read-out: Cell proliferation inhibitory activity (IC50, μM) Non-small cell cancer (NCIH460)
Procedure: as §1
(§2) Cancer cell proliferation inhibitory activity was also measured for human lung cancer cell line NCI-H460 and human prostate cancer cell line PC3 purchased from the American Type Culture Collection.

[3] = biological target: human PI3K (p110α/p85α) (Homo sapiens, UniProt P42336); experiment: Measurement of PI3K inhibitory activity (AlphaScreen GST Detection Kit); type: biochemical; conditions: 10 μM ATP, 4 μM PI(4,5)P2, read-out: Enzyme inhibitory activity (IC50, μM) PI3K α
Sequence of human PI3K (p110α/p85α) (P42336 whole entry): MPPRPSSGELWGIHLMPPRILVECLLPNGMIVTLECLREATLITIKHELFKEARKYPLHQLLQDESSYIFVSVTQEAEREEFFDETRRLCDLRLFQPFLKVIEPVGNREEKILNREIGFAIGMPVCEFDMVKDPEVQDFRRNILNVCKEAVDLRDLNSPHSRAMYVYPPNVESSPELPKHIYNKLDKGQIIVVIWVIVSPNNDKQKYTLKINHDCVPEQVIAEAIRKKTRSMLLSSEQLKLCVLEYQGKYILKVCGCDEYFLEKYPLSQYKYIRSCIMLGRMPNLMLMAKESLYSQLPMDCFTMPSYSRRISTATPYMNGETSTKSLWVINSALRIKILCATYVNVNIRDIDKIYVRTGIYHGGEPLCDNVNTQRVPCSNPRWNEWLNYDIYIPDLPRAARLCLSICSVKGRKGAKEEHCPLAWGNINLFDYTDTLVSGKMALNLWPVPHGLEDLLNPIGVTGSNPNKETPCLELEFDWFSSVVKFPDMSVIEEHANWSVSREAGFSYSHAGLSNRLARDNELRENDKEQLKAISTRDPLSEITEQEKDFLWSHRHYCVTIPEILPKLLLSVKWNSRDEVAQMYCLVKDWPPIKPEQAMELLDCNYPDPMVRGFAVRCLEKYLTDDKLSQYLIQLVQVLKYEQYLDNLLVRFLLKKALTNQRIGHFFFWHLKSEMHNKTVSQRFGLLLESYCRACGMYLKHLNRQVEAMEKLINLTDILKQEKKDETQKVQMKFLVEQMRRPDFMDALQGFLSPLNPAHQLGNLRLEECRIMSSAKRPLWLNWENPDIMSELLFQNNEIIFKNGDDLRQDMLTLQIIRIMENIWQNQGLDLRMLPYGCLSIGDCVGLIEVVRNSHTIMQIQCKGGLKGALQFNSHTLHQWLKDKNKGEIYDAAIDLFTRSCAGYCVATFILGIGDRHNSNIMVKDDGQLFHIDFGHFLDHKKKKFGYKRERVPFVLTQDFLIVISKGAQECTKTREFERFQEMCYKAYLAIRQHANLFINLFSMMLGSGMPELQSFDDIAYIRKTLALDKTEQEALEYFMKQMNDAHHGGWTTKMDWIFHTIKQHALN
Sequence of human PI3K (p110α/p85α) (P27986 whole entry partner): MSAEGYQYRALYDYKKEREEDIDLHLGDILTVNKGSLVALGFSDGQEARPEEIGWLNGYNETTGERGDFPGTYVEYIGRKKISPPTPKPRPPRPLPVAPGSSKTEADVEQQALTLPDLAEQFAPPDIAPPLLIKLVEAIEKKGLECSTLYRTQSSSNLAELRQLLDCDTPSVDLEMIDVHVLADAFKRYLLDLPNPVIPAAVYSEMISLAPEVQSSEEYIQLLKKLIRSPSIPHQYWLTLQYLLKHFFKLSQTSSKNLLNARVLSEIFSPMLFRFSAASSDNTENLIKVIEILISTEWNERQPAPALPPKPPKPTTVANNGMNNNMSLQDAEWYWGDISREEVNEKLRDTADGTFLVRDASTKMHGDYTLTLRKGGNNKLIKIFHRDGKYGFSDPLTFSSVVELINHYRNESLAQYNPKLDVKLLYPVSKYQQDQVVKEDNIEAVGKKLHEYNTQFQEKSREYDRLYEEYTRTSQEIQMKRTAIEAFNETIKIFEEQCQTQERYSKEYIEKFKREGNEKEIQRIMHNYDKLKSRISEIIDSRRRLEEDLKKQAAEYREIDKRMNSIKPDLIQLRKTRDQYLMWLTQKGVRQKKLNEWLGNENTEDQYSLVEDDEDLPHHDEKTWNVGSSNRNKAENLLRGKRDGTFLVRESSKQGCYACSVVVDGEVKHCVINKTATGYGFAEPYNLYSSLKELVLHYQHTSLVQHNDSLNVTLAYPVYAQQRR
Procedure: The inhibitory activity of compounds of the present invention represented by formula (I) was measured with human PI3K (p110α/p85α) prepared in a baculovirus expression system using the AlphaScreen GST Detection Kit (Perkin Elmer, Inc.). A predetermined concentration of the compound of the present invention dissolved in dimethylsulfoxide (DMSO) and PI3K were mixed in a 384-well assay plate and after allowing to stand for 20 minutes at room temperature, 4 μM PI(4,5)P2 (Echelon Corporation) and 10 μM ATP (5 mM Hepes, pH 7.5, 2.5 mM MgCl2) were added to initiate the reaction. After reacting at 37° C. for 15 minutes, GST-GRP1 expressed and purified from Escherichia coli, Anti-GST Acceptor Beads (Perkin Elmer, Inc.), Streptavidin Donor Beads (Perkin Elmer, Inc.) and biotin-PI (3,4,5)P3 (Echelon Corporation) (10 mM Tris-HCl pH 7.4, 150 mM NaCl, 7.5 mM EDTA, 1 mM DTT, 0.1% Tween 20) were added, and after allowing to stand for 1 hour at room temperature, light at 520 to 620 nm emitted as a result of exciting with light at 680 nm was measured with the EnVision measuring instrument (Perkin Elmer, Inc.).
Test Example 1 described above can be performed according to “Analytical Biochemistry, 2003, 313, 234-245; Alexander Gray et al”.

[4] = tested on: human prostate cancer cell line PC3; experiment: Cell proliferation inhibitory activity, PC3 (Cell Counting Kit-8); type: cell-based; conditions: PC-3, 96 h, PC3, 4 days
Procedure: as §1, §2

| SMILES | IC50 [1] | IC50 [2] | IC50 [3] | IC50 [4] |
| --- | --- | --- | --- | --- |
| CS(=O)(=O)n1ccc2c(-c3cnc(N)nc3)nc(N3CCOCC3)nc21 [Compound 4-1, 5-(7-methanesulfonyl-2-morpholin-4-yl-7H-pyrrolo[2,3-d]pyrimidin-4-yl)-pyrimidin-2-ylamine] | 0.41 µM | 0.29 µM | 0.016 µM | 1.14 µM |
| Cc1ccc(C(=O)N2CCOCC2)cc1-n1ccc2c(-c3cnc(N)nc3)nc(N3CCOCC3)nc21 [Compound 2-1, {3-[4-(2-amino-pyrimidin-5-yl)-2-morpholin-4-yl-pyrrolo[2,3-d]pyrimidin-7-yl]-4-methyl-phenyl}-morpholin-4-yl-methanone] | 1.45 µM | 1.25 µM | 0.093 µM | 3.18 µM |
| CCN1CCN(c2cc(-n3ccc4c(-c5cnc(N)nc5)nc(N5CCOCC5)nc43)ccn2)CC1 [Compound 1-1, 5-{7-[2-(4-Ethyl-piperazin-1-yl)-pyridin-4-yl]-2-morpholin-4-yl-7H-pyrrolo[2,3-d]pyrimidin-4-yl}-pyrimidin-2-ylamine] | 0.12 µM | 0.071 µM | 0.007 µM | 0.18 µM |
| Nc1ncc(-c2nc(N3CCOCC3)nc3c2ccn3-c2ccc(CN3CCS(=O)(=O)CC3)cc2)cn1 [Compound 3-1, 5-{7-[4-(1,1-dioxo-1λ^6-thiomorpholin-4-ylmethyl)-phenyl]-2-morpholin-4-yl-7H-pyrrolo[2,3-d]pyrimidin-4-yl}-pyrimidin-2-ylamine] | 0.57 µM | 0.17 µM | 0.093 µM | 0.43 µM |
